The source of these data is EP0082668A1, “5-(2-Halogenovinyl)-2'-deoxyuridine derivatives, processes for their preparation, pharmaceutical compositions containing them and their use in treating viral infections” (BEECHAM GROUP PLC, priority 1981, dated 1983).

Data set [1] can be described thus: Minimum concentration killing the cell monolayer (MTD), read in the plaque reduction test. It counts as cell-based, African Green Monkey. The following applies: monkey, vero cells; minimum concentration which killed the cell monolayer; virus infected Vero cultures, 6 days at 37°C. The protocol: (§1) Vero (African Green Monkey Kidney) cells were grown to confluence in 6 well multidishes, each well being 3.5 cm in diameter. The cells were incubated with herpes simplex type 1 virus (HFEM strain) and overlaid with 0.5 mL of 0.9% agarose (w/v) in maintenance medium containing the test compound at a range of concentrations from 100 pg/mL in half-log dilution steps. The virus infected cultures were then incubated at 37°C for 6 days before fixing in 4% formaldehyde solution and staining with carbolfuchsin. The dishes were then examined to find the concentration of test compound causing a 50% reduction in the number of virus plaques formed (PDD50 value) and the minimum concentration of test compound which killed the cell monolayer, leaving a clear zone devoid of cells and virus plaques (MTD).
In general terms: Plaque reduction counts the foci of infection that form in a cell layer.

Data set [2] has as its system herpes simplex type 1 virus (HFEM strain). Put plainly: Plaque reduction test in Vero cells infected with herpes simplex type 1 virus. The following applies: Human alphaherpesvirus 1, 144 h, concentration causing a 50% reduction in the number of virus plaques, Vero cells, HFEM strain, 6 days at 37°C, read-out: PDD50 (the source's name). Format: cell-based. The protocol: as §1

Where two headings read alike, the source gives them in different places.

Consider `CN(C)c1ccc(C(=O)O[C@H]2C[C@H](n3cc(/C=C/Br)c(=O)n(C(=O)c4ccc(N(C)C)cc4)c3=O)O[C@@H]2CO)cc1` [Example 48, E-5-(2-Bromovinyl)-3-N-(p-dimethylaminobenzoyl)-3'-O-(p-dimethylaminobenzoyl)-2'-deoxyuridine], for which the MCC at 144 h in data set [1] is more than 100 µg/mL. Further, the figures for the IC50 in data set [2] (molar) and in data set [2] were 940 nM and 0.47 µg/mL, respectively.

The compound `Cc1ccccc1C(=O)O[C@H]1C[C@H](n2cc(/C=C/Br)c(=O)n(C(=O)c3ccccc3C)c2=O)O[C@@H]1CO` [Example 49] gave an MCC at 144 h in data set [1] of 100 µg/mL. The results for the IC50 in data set [2] (molar) and in data set [2] were 1100 nM and 0.55 µg/mL, respectively.
